The test system of assay [1] is T1, C118 (GST-C118), alpha-L-rhamnosidase.
T1 construct: E. coli BL21(DE3); GH78 subfamily II; EC 3.2.1.40; predicted catalytic residues Glu478, Asp472, also W541, W600, L597, W532
Briefly: p-nitrophenol release, Michaelis-Menten fit. Type of assay: biochemical, Bifidobacterium sp. As to conditions: pH 6.0, 45 °C; pNPR 0.1-5.0 mM; enzyme 0.62 mg/mL. The text has this: p-nitrophenol release, Michaelis-Menten fit on C118 (GST-C118), alpha-L-rhamnosidase

The target in assay [2] is T2, BD890 (Bd890, BdRham) (Bifidobacterium dentium, UniProt D2Q797).
T2 construct: gene BDP_0161; GST-tag vector pBT7 (same expression system as C118), E. coli BL21(DE3), used as cell lysate; GH78
T2 sequence (D2Q797 1-890): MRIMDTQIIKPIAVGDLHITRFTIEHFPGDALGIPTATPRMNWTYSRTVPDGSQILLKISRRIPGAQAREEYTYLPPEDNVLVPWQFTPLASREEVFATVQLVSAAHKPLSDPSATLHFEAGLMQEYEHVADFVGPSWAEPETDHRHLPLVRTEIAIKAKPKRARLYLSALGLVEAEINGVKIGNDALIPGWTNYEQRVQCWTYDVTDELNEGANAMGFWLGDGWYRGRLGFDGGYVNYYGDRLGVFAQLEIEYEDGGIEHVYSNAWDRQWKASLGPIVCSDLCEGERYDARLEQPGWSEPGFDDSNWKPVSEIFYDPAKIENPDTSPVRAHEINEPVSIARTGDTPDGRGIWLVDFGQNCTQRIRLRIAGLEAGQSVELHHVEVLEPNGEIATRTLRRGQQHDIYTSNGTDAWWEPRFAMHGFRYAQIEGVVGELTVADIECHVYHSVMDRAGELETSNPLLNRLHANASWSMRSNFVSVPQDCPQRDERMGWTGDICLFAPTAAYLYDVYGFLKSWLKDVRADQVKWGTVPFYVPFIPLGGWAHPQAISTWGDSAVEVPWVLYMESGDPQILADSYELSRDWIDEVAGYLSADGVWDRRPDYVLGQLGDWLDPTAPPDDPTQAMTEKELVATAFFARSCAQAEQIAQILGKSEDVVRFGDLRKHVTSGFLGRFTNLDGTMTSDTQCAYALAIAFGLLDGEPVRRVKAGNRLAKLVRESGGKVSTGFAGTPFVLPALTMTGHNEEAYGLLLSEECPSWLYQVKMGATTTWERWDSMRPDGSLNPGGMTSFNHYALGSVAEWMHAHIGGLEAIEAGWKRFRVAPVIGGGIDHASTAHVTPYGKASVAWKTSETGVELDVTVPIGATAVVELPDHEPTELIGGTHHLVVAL
Nature of the assay: conversion of Re to Rg1 in PPT-type ginsenoside mixture. Format: biochemical. Particulars: cell lysate, 45 °C, Re 2.25 mg/mL in ginsenoside mixture.

The test system of assay [3] is T1, C118 (GST-C118), alpha-L-rhamnosidase. Briefly: product (Rg1) quantified, Michaelis-Menten fit. As to conditions: pH 6.0, 45 °C; Re 0.25-10.0 mg/mL; enzyme 0.62 mg/mL. Format: biochemical, Bifidobacterium sp. From the text:
product (Rg1) quantified, Michaelis-Menten fit on C118 (GST-C118), alpha-L-rhamnosidase

In the case of `C[C@@H]1O[C@@H](Oc2ccc([N+](=O)[O-])cc2)[C@H](O)[C@H](O)[C@H]1O` [p-nitrophenyl-α-L-rhamnopyranoside], in assay [1], the Km was 2030 µM.
For the molecule `CC(C)=CCC[C@](C)(O[C@@H]1O[C@H](CO)[C@@H](O)[C@H](O)[C@H]1O)[C@H]1CC[C@]2(C)[C@@H]1[C@H](O)C[C@@H]1[C@@]3(C)CC[C@H](O)C(C)(C)[C@@H]3[C@@H](O[C@@H]3O[C@H](CO)[C@@H](O)[C@H](O)[C@H]3O[C@@H]3O[C@@H](C)[C@H](O)[C@@H](O)[C@H]3O)C[C@]12C` [Ginsenoside Re], in assay [2], the “% conversion after 12 h” value worked out at 54%. In assay [3], the Km was determined as 544 µM.

One may read the Km as the concentration of substrate that gives half-maximal velocity.

The values are drawn from paper PMC11673932, “A Novel Ginsenoside-Transforming α-L-Rhamnosidase from Bifidobacterium: Screening, Characterization and Application” (Biomolecules, 2024).
